# Measurements published in ChEMBL document CHEMBL1122672, “Substituent branching in phenethylamine-type hallucinogens: a comparison of 1-[2,5-dimethoxy-4-(2-butyl)phenyl]-2-aminopropane and 1-[2,5-dimethoxy-4-(2-methylpropyl)phenyl]-2-aminopropane” (1984).
# How the values were obtained:
# Rattus norvegicus [1] = species on record: Rattus norvegicus; assay: Compound was evaluated for the drug discrimination assay and the ED50 (potency) was determined in rats; format: functional
# Rattus norvegicus [2] = species on record: Rattus norvegicus; assay: Compound was evaluated for the drug discrimination assay and the highest percent of LSD correct responses were determined in rats; format: functional
SMILES,ED50 (Rattus norvegicus [1]) [mg/kg],LSD (Rattus norvegicus [2]) [%]
CCC(C)c1cc(OC)c(CC(C)N)cc1OC.Cl (stereo not drawn),1.8,70
COc1cc(CC(C)N)c(OC)cc1CC(C)C.Cl (stereo not drawn),0.536,95
COc1cc(CC(C)N)c(OC)cc1C (stereo not drawn) [DOM],0.148,99
CCN(CC)C(=O)[C@@H]1C=C2c3cccc4[nH]cc(c34)C[C@H]2N(C)C1 [LYSERGIDE],0.0077,100
